Measured values taken from ChEMBL document CHEMBL1201862, “PubChem BioAssay data set” (2004).
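Step 1: Grow cells in 96-well plates. Step 2: Expose to compound for 48 hours at 5 concentrations. Step 3: Interpolate endpoints linearly; if unreached, use highest concentration. At the GI50, growth is halved.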 Active and inactive are the calls of the source. No stated cut-off is given here; in the data, active = GI50 up to about 1.1 µM and inactive = higher. Non-standard residues stand in square brackets, D forms with d. Residues, ends and D or L forms follow the SMILES beside them. ξ: configuration not given here. ξLac(3-iPr) = CC(C)CC(O)C(=O)O; NMeV = CN[CH](C(=O)O)C(C)C; NMeA = CN[CH](C)C(=O)O; βAla = NCCC(=O)O

Experiments:
Experiment in all cases: growth of human tumour cells (NCI), 48 h
SNB-78 = test system: SNB-78
OVCAR-4 = test system: OVCAR-4
HL-60 = test system: HL-60
SK-MEL-2 = test system: SK-MEL-2
HT-29 = test system: HT-29
KM-20L2 = test system: KM-20L2
NCI-H522 = test system: NCI-H522
SN12C = test system: SN12C
U-251 = test system: U-251
RXF 393 = test system: RXF 393
HCT-15 = test system: HCT-15
A549 = test system: A549
DMS-273 = test system: DMS-273
ACHN = test system: ACHN
M14 = test system: M14
OVCAR-3 = test system: OVCAR-3
Malme-3M = test system: Malme-3M
RPMI-8226 = test system: RPMI-8226
A498 = test system: A498
HOP-92 = test system: HOP-92

SMILES	GI50 (SNB-78)	GI50 (OVCAR-4)	GI50 (HL-60)	GI50 (SK-MEL-2)	GI50 (HT-29)	GI50 (KM-20L2)	GI50 (NCI-H522)	GI50 (SN12C)	GI50 (U-251)	GI50 (RXF 393)	GI50 (HCT-15) [µM]	GI50 (A549)	GI50 (DMS-273)	GI50 (ACHN)	GI50 (M14)	GI50 (OVCAR-3)	GI50 (Malme-3M)	GI50 (RPMI-8226)	GI50 (A498)	GI50 (HOP-92)
Cc1cc(C)nc(NS(=O)(=O)c2ccc(NC(=O)c3cccn4c(=O)c5ccccc5nc34)cc2)n1	39.4 µM (inactive)	27.9 µM (inactive)	21.5 µM (inactive)	> 100 µM (inactive)	40.2 µM (inactive)	> 100 µM (inactive)	21.5 µM (inactive)	53.2 µM (inactive)	37.4 µM (inactive)	23.9 µM (inactive)	31	> 100 µM (inactive)	34.4 µM (inactive)	> 100 µM (inactive)	50.7 µM (inactive)	–	–	–	–	–
CCCCN1CN2C(=O)C(C(=O)OCC)C(=O)c3sc4nc(SC)nc1c4c32 (stereo unspecified)	–	18.8 µM (inactive)	46.6 µM (inactive)	19.8 µM (inactive)	19.8 µM (inactive)	–	18.9 µM (inactive)	19.7 µM (inactive)	18.2 µM (inactive)	20.5 µM (inactive)	20	19.9 µM (inactive)	–	17 µM (inactive)	22.4 µM (inactive)	19 µM (inactive)	15 µM (inactive)	21.1 µM (inactive)	1.53 µM (inactive)	14.9 µM (inactive)
CCOC(=O)C1=C(C)N2CCCOC2(C)C(C(=O)OC)C1c1cccc([N+](=O)[O-])c1 (stereo unspecified)	–	–	32.1 µM (inactive)	> 100 µM (inactive)	> 100 µM (inactive)	> 100 µM (inactive)	–	–	–	> 100 µM (inactive)	–	64.3 µM (inactive)	–	71.6 µM (inactive)	> 100 µM (inactive)	42.9 µM (inactive)	–	35 µM (inactive)	–	> 100 µM (inactive)
c1cc2c(c(-c3c4ccccc4nc4ccccc34)c1)CC1(CC2)OCCO1	–	> 100 µM (inactive)	–	> 100 µM (inactive)	–	–	> 100 µM (inactive)	> 100 µM (inactive)	> 100 µM (inactive)	> 100 µM (inactive)	> 100	> 100 µM (inactive)	–	> 100 µM (inactive)	> 100 µM (inactive)	> 100 µM (inactive)	> 100 µM (inactive)	> 100 µM (inactive)	> 100 µM (inactive)	> 100 µM (inactive)
CCOC(=O)c1ccc(C)c(/N=N/N(C)C)c1	–	> 100 µM (inactive)	> 100 µM (inactive)	> 100 µM (inactive)	> 100 µM (inactive)	> 100 µM (inactive)	> 100 µM (inactive)	> 100 µM (inactive)	> 100 µM (inactive)	> 100 µM (inactive)	> 100	> 100 µM (inactive)	> 100 µM (inactive)	> 100 µM (inactive)	> 100 µM (inactive)	> 100 µM (inactive)	> 100 µM (inactive)	> 100 µM (inactive)	> 100 µM (inactive)	> 100 µM (inactive)
CCOC1=C2N=C(C(CC)c3ccc(F)cc3)N=C2C(=O)c2ccccc21 (stereo unspecified)	27.8 µM (inactive)	19.7 µM (inactive)	35.3 µM (inactive)	18.7 µM (inactive)	19.2 µM (inactive)	19 µM (inactive)	22.3 µM (inactive)	16.3 µM (inactive)	21.7 µM (inactive)	11.6 µM (inactive)	18.6	22.1 µM (inactive)	25.6 µM (inactive)	19.1 µM (inactive)	26 µM (inactive)	32.9 µM (inactive)	23.3 µM (inactive)	23.8 µM (inactive)	–	17.7 µM (inactive)
COC(=O)CC(=O)OC	> 100 µM (inactive)	> 100 µM (inactive)	> 100 µM (inactive)	> 100 µM (inactive)	> 100 µM (inactive)	> 100 µM (inactive)	–	> 100 µM (inactive)	> 100 µM (inactive)	> 100 µM (inactive)	> 100	> 100 µM (inactive)	> 100 µM (inactive)	> 100 µM (inactive)	> 100 µM (inactive)	> 100 µM (inactive)	> 100 µM (inactive)	> 100 µM (inactive)	> 100 µM (inactive)	> 100 µM (inactive)
CCCCNS(=O)(=O)c1n[nH]c(=O)[nH]c1=O	–	> 100 µM (inactive)	> 100 µM (inactive)	> 100 µM (inactive)	> 100 µM (inactive)	–	> 100 µM (inactive)	> 100 µM (inactive)	> 100 µM (inactive)	> 100 µM (inactive)	> 100	> 100 µM (inactive)	–	> 100 µM (inactive)	> 100 µM (inactive)	> 100 µM (inactive)	> 100 µM (inactive)	> 100 µM (inactive)	> 100 µM (inactive)	–
COc1cccc(N2C(Cl)C(=O)C2c2c[nH]c3ccccc23)c1 (stereo unspecified)	–	> 100 µM (inactive)	> 100 µM (inactive)	> 100 µM (inactive)	> 100 µM (inactive)	> 100 µM (inactive)	> 100 µM (inactive)	> 100 µM (inactive)	> 100 µM (inactive)	> 100 µM (inactive)	–	> 100 µM (inactive)	–	–	> 100 µM (inactive)	> 100 µM (inactive)	80.9 µM (inactive)	> 100 µM (inactive)	–	> 100 µM (inactive)
CC1Cc2cc(O)c(O)cc2-c2cc(O)c(O)cc2CC1C (stereo unspecified)	–	15.6 µM (inactive)	–	4.32 µM (inactive)	24 µM (inactive)	–	9.57 µM (inactive)	20.9 µM (inactive)	15.2 µM (inactive)	18.1 µM (inactive)	9.29	31.6 µM (inactive)	–	24.6 µM (inactive)	11.5 µM (inactive)	10.9 µM (inactive)	5.62 µM (inactive)	32.4 µM (inactive)	25 µM (inactive)	15.3 µM (inactive)
COc1ccc(CN/C=N/C(C#N)=C(\N)C#N)cc1OC	–	> 100 µM (inactive)	> 100 µM (inactive)	> 100 µM (inactive)	> 100 µM (inactive)	–	> 100 µM (inactive)	> 100 µM (inactive)	> 100 µM (inactive)	–	> 100	> 100 µM (inactive)	–	> 100 µM (inactive)	> 100 µM (inactive)	> 100 µM (inactive)	> 100 µM (inactive)	> 100 µM (inactive)	54.8 µM (inactive)	–
Cc1ccc(S(=O)(=O)NC(=N)N(C)N=O)cc1	–	> 100 µM (inactive)	> 100 µM (inactive)	> 100 µM (inactive)	> 100 µM (inactive)	–	> 100 µM (inactive)	> 100 µM (inactive)	> 100 µM (inactive)	> 100 µM (inactive)	> 100	19.1 µM (inactive)	–	–	> 100 µM (inactive)	> 100 µM (inactive)	> 100 µM (inactive)	> 100 µM (inactive)	71.4 µM (inactive)	84.1 µM (inactive)
CN(C)CC(C)(C)/C(=N\Nc1ccccc1)c1ccccc1	70.1 µM (inactive)	45.4 µM (inactive)	21 µM (inactive)	58.1 µM (inactive)	35.9 µM (inactive)	16.8 µM (inactive)	44.3 µM (inactive)	48.8 µM (inactive)	37.4 µM (inactive)	37.3 µM (inactive)	16.2	92.5 µM (inactive)	33.5 µM (inactive)	20.1 µM (inactive)	21.9 µM (inactive)	54.8 µM (inactive)	46.8 µM (inactive)	10.3 µM (inactive)	82.8 µM (inactive)	–
Cc1cccc2ns[s+]c12	> 100 µM (inactive)	> 100 µM (inactive)	36.3 µM (inactive)	–	43.1 µM (inactive)	> 100 µM (inactive)	–	> 100 µM (inactive)	33.9 µM (inactive)	–	19.4	> 100 µM (inactive)	52.4 µM (inactive)	> 100 µM (inactive)	> 100 µM (inactive)	> 100 µM (inactive)	> 100 µM (inactive)	99.5 µM (inactive)	> 100 µM (inactive)	> 100 µM (inactive)
NC1=NC(=O)[C@H](Cc2c[nH]c3ccccc23)N1C(=O)OCc1ccccc1	–	51.8 µM (inactive)	31.7 µM (inactive)	> 100 µM (inactive)	> 100 µM (inactive)	–	37 µM (inactive)	91 µM (inactive)	69.7 µM (inactive)	45.2 µM (inactive)	> 100	–	–	> 100 µM (inactive)	–	59.7 µM (inactive)	68.7 µM (inactive)	–	61 µM (inactive)	–
CCC(C)C1NC(=O)C2CCCN2C(=O)C(CC(C)C)OC(=O)CCNC(=O)C(C)N(C)C(=O)C(C(C)C)N(C)C1=O (stereo unspecified) (cyclo([ξLac(3-iPr)]PI[NMeV][NMeA][βAla]); configuration not given here)	–	> 50.7 µM (inactive)	0.593 µM (active)	2.42 µM (inactive)	1.32 µM (inactive)	–	6.05 µM (inactive)	6.84 µM (inactive)	10.3 µM (inactive)	3.83 µM (inactive)	4.57	4.82 µM (inactive)	–	4.58 µM (inactive)	1.91 µM (inactive)	6.7 µM (inactive)	6.55 µM (inactive)	1.29 µM (inactive)	23.9 µM (inactive)	17.9 µM (inactive)
CCCCCCCCCCCCCCCCSCC(COC)COP(=O)([O-])OCC[N+](C)(C)C (stereo unspecified) [ILMOFOSINE]	10.2 µM (inactive)	4.06 µM (inactive)	1.55 µM (inactive)	15.5 µM (inactive)	3.09 µM (inactive)	–	2.34 µM (inactive)	3.24 µM (inactive)	1.99 µM (inactive)	3.52 µM (inactive)	2.88	7.21 µM (inactive)	1.85 µM (inactive)	–	–	5.38 µM (inactive)	15.5 µM (inactive)	2.49 µM (inactive)	6.31 µM (inactive)	2.26 µM (inactive)
